{
  "source": "paper PMC9386376",
  "about": "“Discovery of spirooxindole-derived small-molecule compounds as novel HDAC/MDM2 dual inhibitors and investigation of their anticancer activity” (Frontiers in Oncology, 2022)",
  "key": {"HDAC2": {"biological_target": "HDAC2 (Homo sapiens, UniProt Q92769)", "sequence (Q92769 whole entry, canonical isoform)": "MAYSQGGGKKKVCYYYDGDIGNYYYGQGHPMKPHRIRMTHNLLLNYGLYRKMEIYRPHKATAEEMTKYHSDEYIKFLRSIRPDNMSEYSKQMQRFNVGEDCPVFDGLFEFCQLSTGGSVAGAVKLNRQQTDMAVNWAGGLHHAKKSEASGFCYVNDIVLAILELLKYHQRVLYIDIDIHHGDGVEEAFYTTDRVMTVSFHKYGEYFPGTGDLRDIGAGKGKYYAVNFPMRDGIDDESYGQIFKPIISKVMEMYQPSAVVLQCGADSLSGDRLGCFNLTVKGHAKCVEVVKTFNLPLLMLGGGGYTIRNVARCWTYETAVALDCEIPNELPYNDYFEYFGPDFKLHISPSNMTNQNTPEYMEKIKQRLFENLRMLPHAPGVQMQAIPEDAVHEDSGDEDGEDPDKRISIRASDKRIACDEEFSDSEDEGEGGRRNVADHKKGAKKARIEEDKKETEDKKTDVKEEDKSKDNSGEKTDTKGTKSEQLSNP", "experiment": "HDAC isoform selectivity, HDAC2", "assay_type": "biochemical", "conditions": "HDAC subtype panel"}, "HDAC3": {"biological_target": "HDAC3 (Homo sapiens, UniProt O15379)", "sequence (O15379 whole entry, canonical isoform)": "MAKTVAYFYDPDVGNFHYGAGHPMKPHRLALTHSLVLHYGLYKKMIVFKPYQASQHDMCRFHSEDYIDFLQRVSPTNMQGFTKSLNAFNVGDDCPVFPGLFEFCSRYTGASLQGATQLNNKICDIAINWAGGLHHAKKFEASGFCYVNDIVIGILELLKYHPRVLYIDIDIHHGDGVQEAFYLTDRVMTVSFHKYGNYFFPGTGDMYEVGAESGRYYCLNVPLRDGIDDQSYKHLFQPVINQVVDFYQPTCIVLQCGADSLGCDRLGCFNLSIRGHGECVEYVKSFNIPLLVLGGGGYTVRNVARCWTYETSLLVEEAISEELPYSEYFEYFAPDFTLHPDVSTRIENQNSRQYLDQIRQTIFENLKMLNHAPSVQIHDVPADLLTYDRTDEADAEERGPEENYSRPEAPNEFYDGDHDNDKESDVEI", "sequence (Q9Y618 395-489 partner limits assumed)": "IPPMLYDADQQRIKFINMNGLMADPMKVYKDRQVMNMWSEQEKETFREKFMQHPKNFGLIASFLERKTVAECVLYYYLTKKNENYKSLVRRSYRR", "experiment": "HDAC isoform selectivity, HDAC3", "assay_type": "biochemical", "conditions": "HDAC subtype panel"}, "HDAC8": {"biological_target": "T1, HDAC8 (Homo sapiens, UniProt Q9BY41)", "T1 sequence (Q9BY41 1-377)": "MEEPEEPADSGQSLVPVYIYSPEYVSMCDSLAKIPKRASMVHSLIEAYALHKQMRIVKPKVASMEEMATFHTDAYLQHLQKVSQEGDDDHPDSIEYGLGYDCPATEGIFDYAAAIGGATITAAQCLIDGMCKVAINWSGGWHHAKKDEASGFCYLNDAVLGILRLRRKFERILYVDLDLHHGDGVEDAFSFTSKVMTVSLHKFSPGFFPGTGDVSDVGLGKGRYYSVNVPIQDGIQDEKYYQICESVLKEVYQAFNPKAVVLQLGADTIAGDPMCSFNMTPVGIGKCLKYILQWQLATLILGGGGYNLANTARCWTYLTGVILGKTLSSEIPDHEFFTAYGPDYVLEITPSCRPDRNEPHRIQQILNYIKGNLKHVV", "experiment": "HDAC isoform selectivity, HDAC8", "assay_type": "biochemical", "conditions": "HDAC subtype panel"}, "HDAC9": {"biological_target": "HDAC9 (Homo sapiens, UniProt Q9UKV0)", "sequence (Q9UKV0 whole entry, canonical isoform)": "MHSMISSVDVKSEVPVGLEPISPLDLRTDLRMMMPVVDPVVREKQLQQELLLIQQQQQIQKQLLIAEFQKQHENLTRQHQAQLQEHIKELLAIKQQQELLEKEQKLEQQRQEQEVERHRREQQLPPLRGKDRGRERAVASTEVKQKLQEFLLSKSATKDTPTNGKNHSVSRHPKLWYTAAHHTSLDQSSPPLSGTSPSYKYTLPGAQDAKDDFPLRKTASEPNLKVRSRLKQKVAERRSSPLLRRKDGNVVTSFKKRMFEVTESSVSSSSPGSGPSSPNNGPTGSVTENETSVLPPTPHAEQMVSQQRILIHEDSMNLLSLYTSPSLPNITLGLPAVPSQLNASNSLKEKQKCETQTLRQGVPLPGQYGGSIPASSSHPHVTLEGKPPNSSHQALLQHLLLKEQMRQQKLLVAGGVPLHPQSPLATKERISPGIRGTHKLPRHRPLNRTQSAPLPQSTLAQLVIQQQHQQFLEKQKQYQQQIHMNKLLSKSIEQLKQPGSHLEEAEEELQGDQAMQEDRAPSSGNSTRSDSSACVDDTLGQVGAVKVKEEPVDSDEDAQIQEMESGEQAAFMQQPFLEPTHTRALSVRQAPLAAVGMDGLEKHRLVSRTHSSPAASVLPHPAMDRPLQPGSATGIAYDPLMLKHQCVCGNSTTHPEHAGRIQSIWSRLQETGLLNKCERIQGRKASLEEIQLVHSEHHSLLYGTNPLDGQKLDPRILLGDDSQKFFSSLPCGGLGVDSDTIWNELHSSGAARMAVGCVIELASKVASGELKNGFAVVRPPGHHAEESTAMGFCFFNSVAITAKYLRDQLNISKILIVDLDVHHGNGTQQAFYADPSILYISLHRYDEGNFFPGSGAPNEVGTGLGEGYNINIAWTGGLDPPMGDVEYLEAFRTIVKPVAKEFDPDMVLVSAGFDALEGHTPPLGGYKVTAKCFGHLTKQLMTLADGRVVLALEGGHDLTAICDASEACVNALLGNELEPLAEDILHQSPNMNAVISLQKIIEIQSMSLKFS", "experiment": "HDAC isoform selectivity, HDAC9", "assay_type": "biochemical", "conditions": "HDAC subtype panel"}, "HDAC10": {"biological_target": "T2, HDAC10 (Homo sapiens, UniProt Q969S8)", "T2 sequence (Q969S8 1-669)": "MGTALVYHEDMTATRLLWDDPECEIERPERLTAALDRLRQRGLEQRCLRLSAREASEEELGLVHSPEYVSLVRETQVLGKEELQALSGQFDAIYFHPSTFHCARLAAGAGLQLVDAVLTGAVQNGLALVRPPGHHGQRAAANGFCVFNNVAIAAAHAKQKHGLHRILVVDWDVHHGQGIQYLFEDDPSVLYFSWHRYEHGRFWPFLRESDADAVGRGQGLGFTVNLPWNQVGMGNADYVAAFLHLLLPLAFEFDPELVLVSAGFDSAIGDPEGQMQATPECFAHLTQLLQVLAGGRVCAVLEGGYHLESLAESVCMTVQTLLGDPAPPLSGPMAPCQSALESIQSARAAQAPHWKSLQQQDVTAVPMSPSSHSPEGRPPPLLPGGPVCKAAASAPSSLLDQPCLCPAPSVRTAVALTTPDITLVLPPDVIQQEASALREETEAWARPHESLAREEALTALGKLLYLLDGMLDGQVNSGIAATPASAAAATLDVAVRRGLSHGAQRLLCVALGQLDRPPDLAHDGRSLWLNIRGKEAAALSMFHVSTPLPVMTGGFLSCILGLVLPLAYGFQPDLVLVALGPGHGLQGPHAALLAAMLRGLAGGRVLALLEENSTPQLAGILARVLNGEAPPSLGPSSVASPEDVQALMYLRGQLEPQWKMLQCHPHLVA", "experiment": "HDAC isoform selectivity, HDAC10", "assay_type": "biochemical", "conditions": "HDAC subtype panel"}, "MCF-7 cells [1]": {"tested_on": "MCF-7 cells", "experiment": "TUNEL staining apoptosis assay", "assay_type": "cell-based, human", "conditions": "MCF-7, 0.5 μM, 24 h, compared with SAHA and Nutlin-3", "procedure": "(§1) It was reported that the inactivation of HDAC and/or MDM2 could increase the percentage of apoptosis cells ([85]–[87]). Therefore, three methods were applied to assess the effect of MDM2-HDAC dual inhibitor 11b on the apoptosis of MCF-7 cells. […] Subsequently, the annexin V-FITC/propidium iodide (PI) double staining method was carried out to quantitatively detect the effect of compound 11b on cell apoptosis (Figure 9B).\nTUNEL assay was performed using in situ apoptosis detection kit (Promega, USA), according to the manufacturer’s protocols. […] After 24 h incubation, cells were plated onto the slides, fixed in 4% paraformaldehyde in PBS for 25 min, and then washed with PBS twice. After that, the cells were incubated in TUNEL reaction mixture at 37°C for 60 min. Then nuclei were counterstained with DAPI, and cells were checked under an immunofluorescent confocal microscopy (Olympus FV1000)."}, "MCF-7 cells [2]": {"tested_on": "MCF-7 cells", "experiment": "Annexin V-FITC/PI double staining, flow cytometry", "assay_type": "cell-based, human", "conditions": "MCF-7, 5.0 μM, 24 h", "procedure": "as §1\nCells were collected after incubation, then fixed with 75% ice-cold ethanol and stored at -20°C for 1 h. The cells were then harvested with 0.25% trypsin (without EDTA) and centrifuged at 2000 rpm for 5min. Then, the harvested cells were washed with ice-cold PBS twice and resuspended in 500 μL of 1× binding buffer, which was then added to 5 μL of annexin V-FITC and incubated at room temperature in the dark for 15 min. After adding 10 μL of propidium iodide (PI), the cells were incubated at room temperature in the dark. After another 15 min incubation, the cells were collected and analyzed by flow cytometry."}, "Ac-H4 in MCF-7 cells": {"tested_on": "Ac-H4 in MCF-7 cells", "experiment": "Western blot, acetylation of H4", "assay_type": "cell-based, human", "conditions": "MCF-7, 24 h", "procedure": "The cells were collected and washed with cold PBS twice, then added the protease and phosphatase inhibitors contained lysis buffer. Total cell lysates were prepared in lysis RIPA buffer (Invitrogen, CA, USA) on ice for 30 min, followed by centrifugation at 12000 rpm for 10 min at 4°C. After collecting supernatant, protein concentration was determined by a BCA protein assay. The total proteins were loaded into the 10%-15% SDS-PAGE gel and separated by sodium dodecyl sulfate polyacrylamide gel electrophoresis (PAGE). After electrophoresis, the protein was transferred to the PVDF membranes and rinsed three times in PBST buffer for 10 min each time, then sealed with 5% BSA Buffer for 1h. The membranes were incubated at 4°C for 24 h with primary antibodies and washed with TBST three times. Then incubated at room temperature for 2 h with secondary antibodies (1:10,000). The incubated PVDF membranes were taken out and rinsed with TBST three times. The protein bands were visualized through enhanced chemiluminescence (ECL) WB substrate (Millipore, MA, USA) and analyzed by ChemiScope. The antibodies including p53, MDM2, H4, and GAPDH were purchased from Abcam (Cambridge, MA, USA)."}, "GST-tagged MDM2": {"biological_target": "T3, GST-tagged MDM2 (Homo sapiens, UniProt Q00987)", "T3 construct": "purchased Cisbio Co. Ltd", "T3 sequence (Q00987 whole entry)": "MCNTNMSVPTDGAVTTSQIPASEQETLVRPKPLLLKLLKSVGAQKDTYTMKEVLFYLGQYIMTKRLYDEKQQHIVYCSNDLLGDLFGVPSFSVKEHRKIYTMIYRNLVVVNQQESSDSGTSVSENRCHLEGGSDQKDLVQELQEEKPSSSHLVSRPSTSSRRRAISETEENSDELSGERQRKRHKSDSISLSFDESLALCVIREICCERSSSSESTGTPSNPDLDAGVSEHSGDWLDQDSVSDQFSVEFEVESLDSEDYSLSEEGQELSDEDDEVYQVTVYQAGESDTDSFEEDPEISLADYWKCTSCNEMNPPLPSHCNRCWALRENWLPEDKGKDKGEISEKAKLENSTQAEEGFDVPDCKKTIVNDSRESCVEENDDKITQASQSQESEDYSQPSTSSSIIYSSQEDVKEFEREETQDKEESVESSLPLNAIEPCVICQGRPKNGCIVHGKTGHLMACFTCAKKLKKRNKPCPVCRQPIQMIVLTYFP", "experiment": "HTRF enzyme inhibition assay, MDM2", "assay_type": "biochemical"}, "HDAC1": {"biological_target": "HDAC1 (Homo sapiens, UniProt Q13547)", "sequence (Q13547 whole entry)": "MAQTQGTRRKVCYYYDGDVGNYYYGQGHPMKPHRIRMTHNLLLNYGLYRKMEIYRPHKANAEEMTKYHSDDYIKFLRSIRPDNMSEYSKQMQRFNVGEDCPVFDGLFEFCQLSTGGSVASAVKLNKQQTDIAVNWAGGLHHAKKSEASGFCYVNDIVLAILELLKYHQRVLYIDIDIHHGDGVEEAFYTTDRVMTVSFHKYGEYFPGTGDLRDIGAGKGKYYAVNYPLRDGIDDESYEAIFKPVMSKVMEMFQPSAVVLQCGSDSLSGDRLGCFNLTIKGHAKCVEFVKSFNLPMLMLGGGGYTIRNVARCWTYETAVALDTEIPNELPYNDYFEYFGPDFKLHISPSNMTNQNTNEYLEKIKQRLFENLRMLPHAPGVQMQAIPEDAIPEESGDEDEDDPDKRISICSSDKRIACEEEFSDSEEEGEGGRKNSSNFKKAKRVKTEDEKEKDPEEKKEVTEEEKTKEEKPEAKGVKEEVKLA", "experiment": "HTRF enzyme inhibition assay, HDAC1", "method": "The data obtained were processed by the ratio method, and the inhibition rates of MDM2 and HDAC1 were calculated. The detailed experimental procedures are according to the manufacturer’s protocols."}},
  "note": "Entries after “also recorded” stand apart in the source; their conditions may differ.",
  "data": [
    {"smiles": "O=C(CCCCCCC(=O)N1CCC(C(=O)Nc2ccc([C@@H]3[C@H]4CSCN4[C@]4(C(=O)Nc5cc(Cl)ccc54)[C@H]3C(=O)c3ccccc3)cc2)CC1)NO", "note": "[compound 11b, N-(4-((3R,6'S,7'R,7a'S)-6'-benzoyl-6-chloro-2-oxo-1',6',7',7a'-tetrahydro-3'H-spiro[indoline-3,5'-pyrrolo[1,2-c]thiazol]-7'-yl)phenyl)-1-(8-(hydroxyamino)-8-oxooctanoyl)piperidine-4-carboxamide]", "values": [
      {"measurement": "IC50", "setting": "HDAC2", "result": "0.064 ± 0.004", "unit": "µM"},
      {"measurement": "IC50", "setting": "HDAC3", "result": "0.115 ± 0.009", "unit": "µM"},
      {"measurement": "IC50", "setting": "HDAC8", "result": "0.313 ± 0.023", "unit": "µM"},
      {"measurement": "IC50", "setting": "HDAC9", "result": "> 10", "unit": "µM"},
      {"measurement": "IC50", "setting": "HDAC10", "result": "1.49 ± 0.037", "unit": "µM"},
      {"measurement": "apoptotic positive cells by TUNEL staining", "setting": "MCF-7 cells [1]", "result": "significantly higher number of apoptotic positive cells"},
      {"measurement": "apoptotic cells", "setting": "MCF-7 cells [2]", "result": 37.36, "unit": "%"},
      {"measurement": "acetylation level of H4 (Ac-H4, western blot)", "setting": "Ac-H4 in MCF-7 cells", "result": "up-regulating the expression of p53 and Ac-H4; also recorded: increased the expression of p53 and Ac-H4; also recorded: increased acetylation level of H4"},
      {"measurement": "IC50", "setting": "GST-tagged MDM2", "result": "0.339 ± 0.068", "unit": "µM"},
      {"measurement": "IC50", "setting": "HDAC1", "result": "0.058 ± 0.005", "unit": "µM"},
      {"measurement": "inhibition at 1 µM", "setting": "HDAC1; read-out: % enzyme inhibition HDAC", "result": 79, "unit": "%"}
    ]}
  ]
}
